Laboratory results as given in publication PMC5593877, “Identification of endoxylanase XynE from Clostridium thermocellum as the first xylanase of glycoside hydrolase family GH141” (Scientific Reports, 2017).

Target: T1, Xyn141E (Acetivibrio thermocellus, UniProt A3DHG8)
T1 construct: gene Cthe_2195
Assay: HPAEC-PAD of hydrolysis products
Assay type: biochemical
Details: 200 µg/mL substrate, 100 µg/mL enzyme, 10 mM MOPS pH 6.5, 50 mM NaCl, 10 mM CaCl2, 60 °C, 16 h

T1 sequence (A3DHG8 entry or part of it): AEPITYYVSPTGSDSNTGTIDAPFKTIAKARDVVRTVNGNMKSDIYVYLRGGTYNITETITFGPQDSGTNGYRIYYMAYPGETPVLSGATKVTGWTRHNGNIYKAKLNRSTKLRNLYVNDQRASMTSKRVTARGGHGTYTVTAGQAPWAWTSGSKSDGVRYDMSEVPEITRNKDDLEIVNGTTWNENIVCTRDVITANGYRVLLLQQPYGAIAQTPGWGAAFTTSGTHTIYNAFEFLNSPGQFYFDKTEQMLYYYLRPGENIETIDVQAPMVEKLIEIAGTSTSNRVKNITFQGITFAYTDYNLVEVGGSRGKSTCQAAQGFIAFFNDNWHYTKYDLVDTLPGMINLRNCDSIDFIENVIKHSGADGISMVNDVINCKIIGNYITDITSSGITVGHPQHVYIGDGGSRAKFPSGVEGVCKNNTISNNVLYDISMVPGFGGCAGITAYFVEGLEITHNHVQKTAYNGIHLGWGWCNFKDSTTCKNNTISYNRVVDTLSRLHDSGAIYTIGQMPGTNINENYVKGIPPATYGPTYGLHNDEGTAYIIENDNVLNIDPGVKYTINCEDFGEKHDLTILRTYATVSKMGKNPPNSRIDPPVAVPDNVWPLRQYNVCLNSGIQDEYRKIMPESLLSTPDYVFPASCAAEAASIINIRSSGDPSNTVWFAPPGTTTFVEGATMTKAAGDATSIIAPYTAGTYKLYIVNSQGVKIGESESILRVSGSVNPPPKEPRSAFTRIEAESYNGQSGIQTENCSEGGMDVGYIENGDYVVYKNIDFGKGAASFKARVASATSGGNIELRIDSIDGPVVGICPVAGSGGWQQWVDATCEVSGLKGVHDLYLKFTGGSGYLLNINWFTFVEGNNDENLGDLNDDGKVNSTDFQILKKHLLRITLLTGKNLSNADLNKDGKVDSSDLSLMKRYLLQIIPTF

| SMILES | HPAEC-PAD of hydrolysis products |
| --- | --- |
| OC1OC[C@@H](O[C@@H]2OC[C@@H](O[C@@H]3OC[C@@H](O[C@@H]4OC[C@@H](O)[C@H](O)[C@H]4O)[C@H](O)[C@H]3O)[C@H](O)[C@H]2O)[C@H](O)[C@H]1O (some centres unmarked) [X4, xylotetraose] | Xyn141E was able to hydrolyse X5 and X4 to X2 and X3 or X2, respectively. |
| OC1OC[C@@H](O[C@@H]2OC[C@@H](O[C@@H]3OC[C@@H](O[C@@H]4OC[C@@H](O[C@@H]5OC[C@@H](O)[C@H](O)[C@H]5O)[C@H](O)[C@H]4O)[C@H](O)[C@H]3O)[C@H](O)[C@H]2O)[C@H](O)[C@H]1O (some centres unmarked) [X5, xylopentaose] | Xyn141E was able to hydrolyse X5 and X4 to X2 and X3 or X2, respectively. |
